Data from paper PMC6421522, “Designing Dual Inhibitors of Anaplastic Lymphoma Kinase (ALK) and Bromodomain-4 (BRD4) by Tuning Kinase Selectivity” (Journal of Medicinal Chemistry, 2019).

Tested on: HeLa cells
Experiment: Mitotic arrest and mitotic markers in HeLa cells (Western blot)
Type: cell-based
Method: Protein extracts of cells were prepared by lysis in radioimmunoprecipitation assay buffer (Sigma) supplemented with protease inhibitors (complete protease inhibitor cocktail, Roche). Protein extracts (25 μg) were separated by sodium dodecyl sulfate-polyacrylamide gel electrophoresis and transferred onto poly(vinylidene difluoride) membranes using the Trans-Blot Turbo transfer system (BioRad). After blocking with 5% bovine serum albumin in PBS with 0.1% Tween-20 for 30 min, the membrane was incubated with primary antibodies for 1 h at room temperature. Horseradish peroxidase-linked secondary antibodies were incubated 30 min at room temperature followed by enhanced chemiluminescence (ECL) detection (ECL Western blot substrate, Pierce).
Primary antibodies were obtained from the following sources: PLK-1 (05-844) and phosphohistone H3 (Ser10) (05806) from Millipore; pPlk1-T210 (5472) from Cell Signaling; pPlk1-S137 (21738) from Abcam; and cyclin B1 (GNS1) and β-actin (A2228) from Sigma-Aldrich served as loading control.

CCOc1cc(C2CCN(C)CC2)ccc1Nc1ncc2c(n1)N(Cc1cc(C)cs1)[C@H](CC)C(=O)N2C [16k, (R)-2-((2-Ethoxy-4-(1-methylpiperidin-4-yl)phenyl)amino)-7-ethyl-5-methyl-8-((4-methylthiophen-2-yl)methyl)-7,8-dihydropteridin-6(5H)-one]
concentration up to which no increase in mitotic markers and PLK-1 phosphorylation sites (HeLa cells, Western blot): > 10 µM
selectivity window for ALK^F1174L over PLK-1 in cells (based on the cellular data): 10–20 fold
expected cellular PLK-1 potency after similar drop-off (extrapolated from BI-2536 drop-off): > 2500 nM
